# Data taken from patent publication US4401659A, “Muramyl-peptides fixed to peptide-polymers and pharmaceutical compositions containing them” (Agence National de Valorisation de la Recherche (ANVAR), priority 1979, dated 1983).
# Key:
# [1] = Sensitisation trials: plantar injection in IFA or CFA, dermal injection three weeks later
# Description: These trials were undertaken to study the possible immunogenic properties of the products according to the invention. At the same time, sensitisation tests with respect to various products were carried out.
# The tests were carried out on guinea-pigs. The preparations shown in column 1 of the Table of the results were injected by the plantar route. They comprise 100 μg of the product tested incorporated in incomplete FREUND adjuvant (IFA) or in complete FREUND adjuvant (CFA).
# Three weeks after this first injection, 50 μg of the products indicated in the upper portion of the Table of results were injected by the dermal route. Possible reactions were observed 48 hours later.
# Klebsiella = test: Anti-infectious activity with respect to Klebsiella, young mice of 7 days, s.c. treatment and s.c. infection; assay type: in vivo; settings: for Number of survivors at D + 8: controls 0 of 53; for Number of survivors at D + 5: controls 1 of 53; for Number of survivors at D + 3: controls 5 of 53
# Description: In these trials, the product studied was administered, by the sub-cutaneousroute, 24 hours before the infecting test. For the latter, the infecting dose was 1.2.10^3 Klebsiella; it was also administered by the sub-cutaneous route.
# Klebsiella pneumoniae = test: Anti-infectious activity with respect to Klebsiella, mice treated i.v. 24 hours before i.m. inoculation; assay type: in vivo; settings: for Number of survivors at D + 8: controls 4 of 32; for Number of survivors at D + 5: controls 7 of 32; for Number of survivors at D + 3: controls 16 of 32; for Percentage of protection: difference in percentages of survivors versus control group
# Source text: The testing procedure is described in the article of CHEDID L. and Col., Proc. Natl. Acad. Sci. USA, 1977, 74, 2089.
# It was shown that a dose of about 10^4 Klebsiella pneumoniae, injected by the intramuscular route in mice, results in the progressive death of a considerable part, if not the whole, of the animals in the week following the inoculation. After eight days, the survival of the animals was definitely achieved.
# The survival of groups of mice inoculated under the above-indicated conditions and treated by means of the products according to the invention, was recorded.
# For these trials, hybrid mice (C57Bl/6 x AKR)F1 raised in the PASTEUR […], from strains derived from the C.N.R.S. breeding station at ORLEANS were used.
# The infection by Klebsiella pneumoniae, a strain of the 2-capsular type, biotype d, was done from a culture of 16 hours in a medium for pneumococci (No. 53515, […] PASTEUR). The infecting dose was 1.5.10^4 Klebsiella; it was administered by the intramuscular route.
# The administration of the tested product was carried out by the intravenous route in 0.2 ml of apyrogenic physiological solution, the controls receiving the solution alone. It was carried out 24 hours before the inoculation.
# The percentage of protection indicated is the difference in the percentages of survivors of the treated group with respect to the control group.
# [2] = s.c. at D-1, 1 μg, 39 young mice
# [3] = s.c. at D-1, 10 μg, 75 young mice
# [4] = i.v. at D-1, 1 μg (weight of glycopeptide), 24 mice
# [5] = i.v. at D-1, 10 μg (weight of glycopeptide), 32 mice
substance,measurement,setting,value
"multi-[poly-(N-acetyl-muramyl-D-alanyl-D-isoglutaminyl)-D,L-alanyl]-poly-L-lysine [MDP(D-D)(A--L)]",adjuvant to specific immunity,[1]; administered with ovalbumin,is not adjuvant to specific immunity
same,sensitivity reaction with respect to itself and to adjuvant agents like MDP,[1]; guinea-pigs,does not elicit a sensitivity reaction
same,Number of survivors at D + 8,Klebsiella; [2],3
same,Number of survivors at D + 5,Klebsiella; [2],6
same,Number of survivors at D + 3,Klebsiella; [2],19
same,Number of survivors at D + 8,Klebsiella; [3],18
same,Number of survivors at D + 5,Klebsiella; [3],28
same,Number of survivors at D + 3,Klebsiella; [3],50
same,Number of survivors at D + 8,Klebsiella pneumoniae; [4],6
same,Number of survivors at D + 5,Klebsiella pneumoniae; [4],7
same,Number of survivors at D + 3,Klebsiella pneumoniae; [4],15
same,Percentage of protection,Klebsiella pneumoniae; [4],9%
same,Number of survivors at D + 8,Klebsiella pneumoniae; [5],17
same,Number of survivors at D + 5,Klebsiella pneumoniae; [5],19
same,Number of survivors at D + 3,Klebsiella pneumoniae; [5],26
same,Percentage of protection,Klebsiella pneumoniae; [5],38%
